IC50 data for one compound are collected here from BindingDB's records for patent US20250019381 (Cardurion Pharmaceuticals, 2025).

Structures are written as SMILES. pIC50: −log10 of the molar value.

For this test, the target named is Dual specificity calcium/calmodulin-dependent 3',5'-cyclic nucleotide phosphodiesterase 1A (Human, UniProt P54750). As to the kind of experiment: Enzyme immunoassay.
Dual specificity calcium/calmodulin-dependent 3',5'-cyclic nucleotide phosphodiesterase 1A, sequence (P54750 whole entry): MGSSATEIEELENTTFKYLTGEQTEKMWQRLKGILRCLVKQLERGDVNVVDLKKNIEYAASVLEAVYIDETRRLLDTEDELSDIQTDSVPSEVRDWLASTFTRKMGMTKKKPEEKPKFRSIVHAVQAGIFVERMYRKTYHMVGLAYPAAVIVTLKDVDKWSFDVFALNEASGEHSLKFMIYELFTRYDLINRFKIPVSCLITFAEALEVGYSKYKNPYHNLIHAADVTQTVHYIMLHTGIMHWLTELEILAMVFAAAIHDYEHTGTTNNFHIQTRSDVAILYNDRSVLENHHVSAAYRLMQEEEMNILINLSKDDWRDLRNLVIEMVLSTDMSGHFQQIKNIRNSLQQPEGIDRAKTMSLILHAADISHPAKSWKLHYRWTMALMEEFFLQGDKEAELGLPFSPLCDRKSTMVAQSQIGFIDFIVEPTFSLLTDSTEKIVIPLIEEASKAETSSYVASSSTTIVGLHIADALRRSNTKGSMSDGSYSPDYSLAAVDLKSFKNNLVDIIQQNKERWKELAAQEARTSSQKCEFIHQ

A word on the pIC50: it is the negative decadic logarithm of the IC50, by convention in mol/L. With `O=c1[nH]c(CN2CC(Oc3cccnc3)C2)cn2c(C3CCOCC3)ncc12` [US20250019381, Compound (P2)], the pIC50 is 5.28.
